Active and inactive are the calls of the source. The calls are words filed in the database; no cut-off is given here.
What was measured:
[1] = target: Receptor-type tyrosine-protein kinase FLT3 (Homo sapiens, UniProt P36888, ITD)
Description: Inhibition of FLT3 ITD mutant (unknown origin)

[2] = target: Platelet-derived growth factor receptor alpha (Homo sapiens, UniProt P16234)
Description: Inhibition of PDGFRalpha (unknown origin)

[3] = target: Cyclin-dependent kinase 2 (Homo sapiens, UniProt P24941)
Description: Inhibition of CDK2 (unknown origin)

[4] = test system: Receptor-type tyrosine-protein kinase FLT3 (Homo sapiens), P36888 [UNDEFINED MUTATION]; conditions: MV4-11, dose 5-25 nM, time 1.0 hrs
MV4-11 [5] = test: cells; conditions: Homo sapiens
Description: Antiproliferative activity against human MV4-11 cells expressing FLT3-ITD mutant

EOL1 = test: cells; conditions: Homo sapiens
Description: Antiproliferative activity against human EOL1 cells expressing IP1L1-PDGFRA fusion protein

Kasumi 1 = test: cells; conditions: Homo sapiens
Description: Antiproliferative activity against human Kasumi 1 cells harboring N822K KIT mutant

K562 = test: cells; conditions: Homo sapiens
Description: Antiproliferative activity against human K562 cells

MV4-11 [6] = assay type: functional, cell-based; conditions: Homo sapiens, dose 1-125 nM, time 24.0 hrs
[7] = test system: Receptor-type tyrosine-protein kinase FLT3 (Homo sapiens), P36888 [UNDEFINED MUTATION]; conditions: MV4-11, dose 5-25 nM, time 1.0 hrs; remark: listed apart in the source
[8] = test system: Receptor-type tyrosine-protein kinase FLT3 (Homo sapiens), P36888 [UNDEFINED MUTATION]; conditions: MV4-11, dose 5-25 nM, time 1.0 hrs; remark: listed apart in the source

Chain of Receptor-type tyrosine-protein kinase FLT3 (Homo sapiens), P36888 [UNDEFINED MUTATION] (P36888 whole entry, looked up, change not shown): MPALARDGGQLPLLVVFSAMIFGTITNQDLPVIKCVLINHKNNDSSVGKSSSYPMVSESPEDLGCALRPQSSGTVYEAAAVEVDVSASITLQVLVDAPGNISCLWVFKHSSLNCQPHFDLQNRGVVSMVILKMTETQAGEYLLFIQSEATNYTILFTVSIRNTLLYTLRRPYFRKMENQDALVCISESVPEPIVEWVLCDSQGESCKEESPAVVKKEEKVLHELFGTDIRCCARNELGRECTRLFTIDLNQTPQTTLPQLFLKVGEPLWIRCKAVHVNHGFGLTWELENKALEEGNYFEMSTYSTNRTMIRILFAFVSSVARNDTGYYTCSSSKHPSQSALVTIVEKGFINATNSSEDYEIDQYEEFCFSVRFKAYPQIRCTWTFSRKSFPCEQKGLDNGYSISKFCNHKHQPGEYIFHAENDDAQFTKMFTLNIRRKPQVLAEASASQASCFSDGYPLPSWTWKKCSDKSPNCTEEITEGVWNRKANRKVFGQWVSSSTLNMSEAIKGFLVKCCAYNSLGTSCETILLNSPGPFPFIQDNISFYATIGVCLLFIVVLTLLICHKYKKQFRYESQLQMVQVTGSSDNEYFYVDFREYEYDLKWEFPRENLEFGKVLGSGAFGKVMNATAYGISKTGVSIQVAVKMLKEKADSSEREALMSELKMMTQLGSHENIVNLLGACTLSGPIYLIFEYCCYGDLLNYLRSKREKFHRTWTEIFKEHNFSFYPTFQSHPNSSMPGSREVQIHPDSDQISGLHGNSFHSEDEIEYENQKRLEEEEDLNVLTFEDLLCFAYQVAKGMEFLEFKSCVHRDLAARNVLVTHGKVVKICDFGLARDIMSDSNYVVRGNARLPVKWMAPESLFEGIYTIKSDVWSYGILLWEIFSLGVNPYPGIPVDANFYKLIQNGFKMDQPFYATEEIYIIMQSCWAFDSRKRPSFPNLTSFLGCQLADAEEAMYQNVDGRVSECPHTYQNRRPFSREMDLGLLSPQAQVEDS
Chain of Receptor-type tyrosine-protein kinase FLT3 (P36888 whole entry, looked up, change not shown): as above
Chain of Platelet-derived growth factor receptor alpha (P16234 whole entry): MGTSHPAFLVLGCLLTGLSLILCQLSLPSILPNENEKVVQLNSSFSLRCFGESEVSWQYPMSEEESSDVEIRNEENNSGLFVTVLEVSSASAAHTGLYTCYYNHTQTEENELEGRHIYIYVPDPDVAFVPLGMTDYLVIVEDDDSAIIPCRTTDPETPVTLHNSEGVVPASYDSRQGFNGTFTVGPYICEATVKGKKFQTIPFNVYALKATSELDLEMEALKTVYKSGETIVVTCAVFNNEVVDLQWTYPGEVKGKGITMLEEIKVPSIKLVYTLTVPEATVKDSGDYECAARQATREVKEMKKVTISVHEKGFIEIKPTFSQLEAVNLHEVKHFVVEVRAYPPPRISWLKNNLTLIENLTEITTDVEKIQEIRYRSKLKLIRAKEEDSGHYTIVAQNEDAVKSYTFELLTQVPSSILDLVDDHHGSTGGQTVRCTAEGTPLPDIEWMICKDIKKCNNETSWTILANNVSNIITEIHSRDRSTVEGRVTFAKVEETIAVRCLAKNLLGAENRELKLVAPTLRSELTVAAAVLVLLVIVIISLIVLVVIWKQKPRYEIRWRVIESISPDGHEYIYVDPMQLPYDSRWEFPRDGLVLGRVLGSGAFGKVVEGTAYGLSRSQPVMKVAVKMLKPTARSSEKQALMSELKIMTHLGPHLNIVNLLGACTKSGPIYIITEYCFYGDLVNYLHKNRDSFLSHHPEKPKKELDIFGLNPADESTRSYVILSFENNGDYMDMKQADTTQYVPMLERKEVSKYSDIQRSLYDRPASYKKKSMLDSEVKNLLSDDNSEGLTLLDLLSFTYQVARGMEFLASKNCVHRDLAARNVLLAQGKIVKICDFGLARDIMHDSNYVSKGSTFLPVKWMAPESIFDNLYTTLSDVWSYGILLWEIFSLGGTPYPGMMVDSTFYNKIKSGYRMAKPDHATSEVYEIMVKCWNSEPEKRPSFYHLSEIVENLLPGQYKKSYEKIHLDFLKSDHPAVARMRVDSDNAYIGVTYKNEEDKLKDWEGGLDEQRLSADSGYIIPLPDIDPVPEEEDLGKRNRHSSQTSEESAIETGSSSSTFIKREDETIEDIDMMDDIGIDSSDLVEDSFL

IC50 [1] | IC50 [2] | IC50 [3] | inhibition [4] | GI50 (MV4-11 [5]) | GI50 (K562) | inhibition [7] | inhibition [8] | SMILES | GI50 (EOL1) | GI50 (Kasumi 1) | Activity (MV4-11 [6])
1310 nM | 19800 nM | 25 nM | Active | 602 nM | 7190 nM |  |  | NCCCNCCCCNC(=O)c1ccc(CNc2nc(N[C@H]3CC[C@H](N)CC3)nc3c2ncn3C2CCCC2)cc1 | 799 nM | 1920 nM | 
4 nM | 153 nM | 17 nM | Active | 95 nM | 6300 nM | Active | Active | NCCCCNc1ccc(Nc2nc(N[C@H]3CC[C@H](N)CC3)nc3c2ncn3C2CCCC2)cc1 | 171 nM | 2740 nM | Active
10 nM | 203 nM | 31 nM | Active | 4 nM | 896 nM | Active | Active | NCCCNCCCCNCCCNc1ccc(Nc2nc(N[C@H]3CC[C@H](N)CC3)nc3c2ncn3C2CCCC2)cc1 | 11 nM | 647 nM | 
6 nM | 219 nM | 21 nM | Active | 52 nM | 2780 nM | Active | Active | NCCCNCCCCNc1ccc(Nc2nc(N[C@H]3CC[C@H](N)CC3)nc3c2ncn3C2CCCC2)cc1 | 60 nM | 1850 nM | Active
4 nM | 41 nM | 19 nM | Active | 25 nM | 7370 nM | Active | Active | NCCCNCCCCNC(=O)c1ccc(Nc2nc(N[C@H]3CC[C@H](N)CC3)nc3c2ncn3C2CCCC2)cc1 | 17 nM | 2910 nM | Active

More lines, now with the values behind:

SMILES | IC50 [1] | IC50 [2] | IC50 [3] | inhibition [4] | GI50 (MV4-11 [5]) | GI50 (K562) | inhibition [7] | inhibition [8] | GI50 (EOL1) | GI50 (Kasumi 1) | Activity (MV4-11 [6])
NCCCCNC(=O)c1ccc(CNc2nc(N[C@H]3CC[C@H](N)CC3)nc3c2ncn3C2CCCC2)cc1 | 1650 nM | > 20000 nM | 27 nM | Active | 577 nM | 8260 nM |  |  | 676 nM | 2560 nM | 
NC(=O)c1ccc(Nc2nc(N[C@H]3CC[C@H](N)CC3)nc3c2ncn3C2CCCC2)cc1 | 2 nM | 17 nM | 4 nM | Active | 39 nM | 6130 nM | Active | Active | 40 nM | 4180 nM | Active
NCCCCNC(=O)c1ccc(Nc2nc(N[C@H]3CC[C@H](N)CC3)nc3c2ncn3C2CCCC2)cc1 | 3 nM | 36 nM | 20 nM | Active | 23 nM | 10800 nM | Active | Active | 15 nM | 4050 nM | Active
N[C@H]1CC[C@H](Nc2nc(Nc3ccccc3)c3ncn(C4CCCC4)c3n2)CC1 | 5 nM | 196 nM | 7 nM | Active | 23 nM | 2450 nM | Active | Active | 41 nM | 278 nM | Active
N[C@H]1CC[C@H](Nc2nc(NCc3ccccc3)c3ncn(C4CCCC4)c3n2)CC1 | 2510 nM | > 20000 nM |  | Active | 1140 nM | 4220 nM |  |  | 1170 nM | 988 nM | 
